Test results reported in PubChem BioAssay (NCI).
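Following 48 hours of exposure in 96-well plates, responses at five concentrations were used to interpolate endpoints linearly. Definition used: TGI = concentration required for complete inhibition of growth.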

Assays:
Assay in all cases: growth of human tumour cells (NCI), 48 h
[1] = tested on: 786-0 renal
[2] = tested on: A498 renal
[3] = tested on: A549 NSCLC
[4] = tested on: ACHN renal
[5] = tested on: BT-549 breast
[6] = tested on: CAKI-1 renal
[7] = tested on: CCRF-CEM leukemia
[8] = tested on: COLO 205 colon
[9] = tested on: DU-145 prostate
[10] = tested on: EKVX NSCLC
[11] = tested on: HCC-2998 colon
[12] = tested on: HCT-116 colon
[13] = tested on: HCT-15 colon
[14] = tested on: HL-60(TB) leukemia
[15] = tested on: HOP-92 NSCLC
[16] = tested on: HS 578T breast
[17] = tested on: IGROV1 ovarian
[18] = tested on: KM12 colon
[19] = tested on: LOX IMVI melanoma
[20] = tested on: M14 melanoma
[21] = tested on: MALME-3M melanoma
[22] = tested on: MCF7 breast
[23] = tested on: MDA-MB-231 breast
[24] = tested on: MDA-MB-435
[25] = tested on: MDA-N
[26] = tested on: MOLT-4 leukemia
[27] = tested on: NCI-H226 lung
[28] = tested on: NCI-H460 lung
[29] = tested on: NCI-H522 lung
[30] = tested on: NCI/ADR-RES ovarian
[31] = tested on: OVCAR-3 ovarian
[32] = tested on: OVCAR-4 ovarian
[33] = tested on: OVCAR-5 ovarian
[34] = tested on: OVCAR-8 ovarian
[35] = tested on: PC-3 prostate
[36] = tested on: RPMI-8226 leukemia
[37] = tested on: RXF 393 renal
[38] = tested on: SF-268 CNS
[39] = tested on: SF-295 CNS
[40] = tested on: SF-539 CNS
[41] = tested on: SK-MEL-2 melanoma
[42] = tested on: SK-MEL-28 melanoma
[43] = tested on: SK-MEL-5 melanoma
[44] = tested on: SN12C renal
[45] = tested on: SNB-19 CNS
[46] = tested on: SNB-75 CNS
[47] = tested on: SR leukemia
[48] = tested on: SW-620 colon
[49] = tested on: T-47D breast
[50] = tested on: TK-10 renal
[51] = tested on: U251 CNS
[52] = tested on: UACC-257 melanoma
[53] = tested on: UACC-62 melanoma
[54] = tested on: UO-31 renal

Measured: TGI

Cc1cc(S(=O)(=O)NC2=NCc3c(F)cccc3N2)c(S)cc1Cl
> 100 µM: all assays above
